pIC50: −log10 of the molar value.
Legend:
phospho-SRC = assay: Western blot of NALM6 cells; type: cell-based, human; settings: NALM6, 1μM or 3μM, 24 hours
Method: (§1) Figure 5 GZD824 inhibits the SRC kinase in pre-B ALL cells A-C. Western blot analysis of […]-treated NALM6 cells. Cells were treated with DMSO, GZD824 (1μM), or GZD824 (3μM) for 24 hours. Lysates were analyzed with antibodies to (A) phospho-SRC and SRC; (B) phospho-STAT3 and STAT3; and (C) phospho-Rb, Rb, and C-Myc. D. qRT-PCR products of BCL-XL, CCND1, CDK4, and CCK[…] mRNA were normalized to GAPDH and presented as fold increase or decrease compared to control, 24 hours after treatment with 3 μM GZD824. E. NALM6 cells were treated with GZD824, SRC inhibitor (KX2-391), STAT3 inhibitor (HO-3867), or DMSO for 24 hours. Statistical analysis of Annexin V-positive cells in 3μM of drug treated NALM6 cells. All data from independent experiments are presented as mean ± SEM. Significance values: ^*P<0.05; ^**P<0.01; ^***P<0.001. For Western blot analysis, 30 μg of total protein extracts prepared from NALM6 or primary pre-B ALL cells from SP of PDX mice were separated on SDS-PAGE and transferred to a PVDF membrane (Bio-Rad, Hercules, CA, USA). The following commercially available antibodies and dilutions were used for Western blotting: human anti-STAT3 (ab119352, Abcam, UK), human anti-phospho-STAT3 (Y705) (ab76315, Abcam, UK), human anti-SRC (ab32102, Abcam, UK), human anti-phospho-SRC ([…]) (ab185617, Abcam, UK), human anti-RB (9313, Cell Signaling Technology, MA, USA), human anti-phospho-RB (Ser807/811) (8516, Cell Signaling Technology, MA, USA), human anti-C-myc (13987, Cell Signaling Technology, MA, USA), anti-AKT (pan) ([…], Cell Signaling Technology, MA, USA), anti-phospho-AKT (Ser473) ([…], Cell Signaling Technology, MA, USA), anti-IRS-1 ([…], Cell Signaling Technology, MA, USA), and human anti-β-actin (4970, Cell Signaling Technology, MA, USA). Western blot analysis was performed with cell lines or primary pre-B ALL cells from SP following GZD824 treatment, and signal intensities were normalized to β-actin signals.

C-Myc = assay: Western blot of NALM6 cells; type: cell-based, human; settings: NALM6, 1μM or 3μM, 24 hours
Method: as §1

phospho-Rb = assay: Western blot of NALM6 cells; type: cell-based, human; settings: NALM6, 1μM or 3μM, 24 hours
Method: as §1

phospho-STAT3 = assay: Western blot of NALM6 cells; type: cell-based, human; settings: NALM6, 1μM or 3μM, 24 hours
Method: as §1

NALM6 = assay: CCK8 viability / proliferation assay; type: cell-based; settings: Homo sapiens, NALM-6, 24 h, read-out: IC50, inhibition of proliferation
Method: (§2) Viability was calculated relative to time-matched untreated controls. D824 is short for GZD824 in the following figure. B. Left: representative flow cytometric analysis of NALM6 and SUPB15 cells treated with DMSO, 1μM, or 3μM of GZD824 for 24 hours. Right: Statistical analysis of AnnexinV-positive cells in GZD824 treated NALM6 and SUPB15 cells. C. Left: representative images of cell cycle distribution in NALM6 and SUPB15 cells treated with DMSO or 3μM of GZD824 for 24 hours. Right: Statistical analysis of the distribution of cells in G0/G1 phases in GZD824 treated cells. Data are shown as the mean ± SEM (error bars) from three independent experiments. Significance values: ^*P<0.05; ^**P<0.01; ^***P<0.001. […] For each plot they are listed in the order upper left, upper right, lower left, lower right.

SUPB15 = assay: CCK8 viability / proliferation assay; type: cell-based; settings: Homo sapiens, SUP-B15, 24 h, read-out: IC50, inhibition of proliferation
Method: as §2

NALM6 cells = assay: Cell-cycle analysis (PI staining, flow cytometry); type: cell-based, human
Method: Human pre-B ALL cell lines NALM6 and SUPB15 were purchased from American Type Culture Collection (ATCC, Maryland, USA). All pre-B ALL cell lines were maintained in cell culture media and conditions as recommended by the ATCC. Cells were treated with GZD824 for 24 hours. GZD824 (3μM, 1μM, or 0.5μM) was used in the experiments unless otherwise noted. NALM6 and SUPB15 cells were maintained in RPMI-1640 medium (Gibco, New York, NY, USA) with 10% fetal bovine serum (Biochrom, Melbourne, Australia). Cell cycle analysis was performed by flow cytometry after propidium iodide (PI) staining as described. Approximately 2 × 10^6 cells were suspended in 0.5 ml of phosphate-buffered saline (PBS) and vortexed with 3 ml of 80% ethanol. Cells were fixed at 4°C for 1 hr, washed with PBS, re-suspended in PBS, and vortexed vigorously. Cells were re-suspended in 1 ml of PBS containing 50 μg/ml of DNase-free RNase A (EN0531, Thermo Fisher scientific, Waltham, USA) and 50 μg/ml of propidium iodide PI (P4170, Sigma Aldrich, St. Louis, MO, USA). Cells were stained for at least 1 hr at room temperature in the dark. Stained cells were then subjected to flow cytometric analysis by an Accuri™ C6 (BD Biosciences, CA, USA).

Q: Which results are given for Cc1ccc(C(=O)Nc2ccc(CN3CCN(C)CC3)c(C(F)(F)F)c2)cc1C#Cc1cnc2[nH]ncc2c1 [GZD824]?
A: phosphorylated SRC (phospho-SRC): reduced; c-Myc oncogene expression (C-Myc): downregulated; Rb phosphorylation (phospho-Rb): suppressed; phosphorylated STAT3 (phospho-STAT3): reduced; pIC50 (NALM6): 6.30; pIC50 (SUPB15): < 6.30; proportions of the G0/G1 fraction (NALM6 cells; NALM6, 500 nM): increased; percentage of the G0/G1 fraction (NALM6 cells; NALM6, 3μM, 24 hours): 71.6%

Source: paper PMC5675611, “GZD824 suppresses the growth of human B cell precursor acute lymphoblastic leukemia cells by inhibiting the SRC kinase and PI3K/AKT pathways” (Oncotarget, 2016)
